{
  "source": "patent US20250332265A1",
  "about": "“PSMA TARGETED CONJUGATE COMPOUNDS AND USES THEREOF” (priority 2021, published 2025)",
  "key": {"[1]": {"assay": "Stability in PBS, Example 2", "assay_type": "physicochemical", "conditions": "incubated at 37° C.", "description": "To synthesize PSMA-1-MMAE-IR700 (FIG. 6A), we used a self-immolative cathespsin cleavable Vc linker to conjugate MMAE to PSMA-1-Cys-C6-Lys. IR700 was conjugated to the PSMA-1 ligand through reaction of the Lys amine (—NH2) with NHS ester as no IR700 release is required for light activation. […] Degradation of PSMA-1-MMAE-IR700 led to release of free MMAE."}, "[2]": {"system": "PSMA-positive PC3pip cells", "assay": "In vitro uptake studies, Example 2, PC3pip", "assay_type": "cell-based, human", "conditions": "50 nM", "experimental": "(§1) Enzymatic cleavage study of PSMA-1-MMAE-IR700 was performed as previously described. PSMA-1-MMAE-IR700 was incubated with activated human liver cathespin (Anthens Research and Technology, Anthens, GA) at 37° C. At different incubation time, 40 μL of the solution was placed into tubes loaded with 1 μL of 1 mM E64 protease inhibitor. The mixture was vortexed and then stored at −80° C. for future HPLC analysis. Studies were performed in triplicate. In vitro cellular uptake studies cells were plated on coverslips at about 60-70% confluency. Twenty-four hours later, cells were incubated with 50 nM of PSMA-1-MMAE-IR700. After incubation for various times (15 min, 30 min, 1 h and 4 h), cells were washed twice with cold RPMI 1640, fixed with 4% paraformaldehyde and counterstained with 4′,6-diamidino-2-phenylindole (DAPI). Images were taken using a Leica DM4000B fluorescence microscope (Leica Biosystems, Buffalo Gove, IL) at 40×. Blocking experiments were performed by co-incubation of cells with 50 nM of PSMA-1-MMAE-IR700 and 100× of PSMA-1 ligand. Studies were performed in triplicate."}, "[3]": {"system": "PSMA-negative PC3flu cells", "assay": "In vitro cytotoxicity studies (CellTiter 96) with or without 690 nm light, PC3flu", "assay_type": "cell-based, human", "experimental": "PC3pip and PC3flu cells were plated at 3,000 cells/well in 96-well plates. Twenty-four hours later, drugs (PSMA-1-MMAE-IR700 or PSMA-1-IR700) of different concentrations were added. After incubation at 37° C. in the dark for 24 h, cell viability was determined by CellTiter 96© aqueous one solution cell proliferation assay using absorbance at 490 nm (Promega Biotech, Madison, […]). The concentration required to inhibit 50% of cell growth (IC50) was determined by GraphPad Prism 3.0. To test the cytotoxicity of PSMA-1-MMAE-TR700 with light irradiation, drugs at a final concentration of 5 nM were added to cells and incubated in the dark for 24 h. Cells were then washed 3 times with RMPI 1640 and then irradiated with 690 nm light (L690-66-60, Marubeni America Co, New York, NY). Cells were incubated in the dark for another 24 h. Cell viability was then determined by CellTiter 96© aqueous one solution cell proliferation assay (Promega Biotech, Madison, […]). The coefficient drug interaction (CDI) was calculated as follows: CDI=AB/(A×B), where AB is the ratio of the absorbance of combination treatment groups (PSMA-1-MMAE-IR700 with light irradiation) to the absorbance of control groups; A or B is the absorbance of single treatment group (PSMA-1-MMAE-IR700 without light or PSMA-1-IR700 with light irradiation) to the absorbance of control groups. […]"}, "[4]": {"system": "PSMA-positive PC3pip cells", "assay": "In vitro cytotoxicity studies (CellTiter 96) with or without 690 nm light, PC3pip", "assay_type": "cell-based, human", "conditions": "for ratio of absorbance to control groups (cell viability): 5 nM, 24 h", "experimental": "(§2) PC3pip and PC3flu cells were plated at 3,000 cells/well in 96-well plates. Twenty-four hours later, drugs (PSMA-1-MMAE-IR700 or PSMA-1-IR700) of different concentrations were added. After incubation at 37° C. in the dark for 24 h, cell viability was determined by CellTiter 96© aqueous one solution cell proliferation assay using absorbance at 490 nm (Promega Biotech, Madison, […]). The concentration required to inhibit 50% of cell growth (IC50) was determined by GraphPad Prism 3.0. To test the cytotoxicity of PSMA-1-MMAE-TR700 with light irradiation, drugs at a final concentration of 5 nM were added to cells and incubated in the dark for 24 h. Cells were then washed 3 times with RMPI 1640 and then irradiated with 690 nm light (L690-66-60, Marubeni America Co, New York, NY). Cells were incubated in the dark for another 24 h. Cell viability was then determined by CellTiter 96© aqueous one solution cell proliferation assay (Promega Biotech, Madison, […]). The coefficient drug interaction (CDI) was calculated as follows: CDI=AB/(A×B), where AB is the ratio of the absorbance of combination treatment groups (PSMA-1-MMAE-IR700 with light irradiation) to the absorbance of control groups; A or B is the absorbance of single treatment group (PSMA-1-MMAE-IR700 without light or PSMA-1-IR700 with light irradiation) to the absorbance of control groups. CDI <1, =1 and >1 indicates synergistic, additive or antagonistic effect."}, "[5]": {"assay": "In vitro cytotoxicity studies (CellTiter 96) with or without 690 nm light, PC3pip", "assay_type": "cell-based, human", "conditions": "24 h in the dark, no light; read-out: IC50 dark cytotoxicity, PC3pip cells", "experimental": "as §2"}, "[6]": {"system": "PC3pip tumors", "assay": "Immunofluorescent detection of apoptosis (caspase-3, H&E)", "assay_type": "in vivo, mice", "conditions": "single dose, four days after the treatment", "description": "Animals bearing PC3pip tumors were divided into 7 groups: (1) mice receiving PBS; (2) mice receiving 100 nmol/kg PSMA-1-MMAE-IR700 with PDT; (3) mice receiving equal doses of PSMA-1-MMAE-IR700 to group 2, but not receiving PDT; (4) Mice receiving equal doses of PSMA-1-IR700 to group 2 with PDT treatment; (5) Mice receiving equal doses of PSMA-1-IR700 to group 2 without PDT; (6) mice receiving equal dose of PSMA-1-IR700 to group 2+free MMAE with PDT (MMAE normalized to that delivered by PSMA-1-MMAE-IR700); and (7) mice receiving equal dose of PSMA-1-IR700 to group 2+free MMAE without PDT. Animals were treated with one single dose and were sacrificed at 4-day post treatment. Tumors were snap-frozen in OCT, cut into 10 μm thick sections and fixed on slides. Induction of apoptosis by the treatment was determined by rabbit polyclonal anti-Caspase-3 antibody (Abcam, Cambridge, UK). A goat anti-rabbit polyclonal antibody labeled by Alexa Fluor-594 was used as secondary antibody (Abcam, Cambridge, UK). The presence of apoptosis was determined by fluorescence images under Leica DM4000B fluorescence microscope at 10×. H&E staining of tumor tissues was performed in adjacent sections to check the histology of the tumors. Experiments were repeated in 5 mice."}, "[7]": {"system": "orthotopic PC3pipGFP tumors", "assay": "Detection of orthotopic tumor and lymph node metastases", "assay_type": "in vivo, mice", "conditions": "100 nmol/kg, 1 h post injection", "experimental": "Orthotopic PC3pipGFP prostate cancer models were established as previously described using green fluorescence protein (GFP) transfected PC3pip cells. Mice bearing orthotopic PC3pipGFP tumors were injected with 100 nmol/kg of PSMA-1-MMAE-IR700. Mice were imaged at 1 h post injection by Maestro using the yellow filter set for PSMA-1-MMAE-IR700 and blue filter set for GFP (excitation 445-490 nm, emission 515 nm longpass). Mice were then euthanized and primary tumor was removed to expose lymph nodes. The mice were imaged again. Resected primary tumor and lymph nodes were snap-frozen in optimal cutting temperature (OCT) compound and sectioned. The slides were subjected to hematoxylin and eosin (H&E) staining, and adjacent set of slides were counter stained with DAPI and observed under Leica DM4000B fluorescence microscope at 10× to visualize DAPI, GFP and PSMA-1-MMAE-IR700. Experiments were repeated in three mice."}, "[8]": {"target": "T1, human liver cathespin (Homo sapiens, UniProt P07858)", "T1 construct": "purchased Anthens Research and Technology, Anthens, GA; host or cells: human liver (tissue-derived enzyme)", "assay": "Cathepsin cleavage studies, Example 2", "assay_type": "in vitro ADME", "conditions": "37° C., HPLC", "experimental": "as §1"}},
  "data": [
    {"smiles": "CC[C@H](C)[C@@H]([C@@H](CC(=O)N1CCC[C@H]1[C@H](OC)[C@@H](C)C(=O)N[C@H](C)[C@@H](O)c1ccccc1)OC)N(C)C(=O)[C@@H](NC(=O)[C@H](C(C)C)N(C)C(=O)OCc1ccc(NC(=O)[C@H](CCCNC(N)=O)NC(=O)[C@@H](NC(=O)CCCCCN2C(=O)CC(SC[C@H](NC(=O)[C@H](CCC(=O)O)NC(=O)[C@H](CCC(=O)O)NC(=O)[C@H](CCC(=O)O)NC(=O)CCCCCNC(=O)[C@H]3CC[C@H](CNC(=O)CC[C@H](NC(=O)N[C@@H](CCC(=O)O)C(=O)O)C(=O)O)CC3)C(=O)NCCCCCC(=O)N[C@@H](CCCCNC(=O)CCCCCNC(=O)OCCCOc3cccc4c5n6c(c34)=NC3=NC(=Nc4c7ccccc7c(n4[Si]6(O[Si](C)(C)CCC[N+](CCCS(=O)(=O)[O-])(CCCS(=O)(=O)O)CCCS(=O)(=O)O)O[Si](C)(C)CCC[N+](CCCS(=O)(=O)[O-])(CCCS(=O)(=O)O)CCCS(=O)(=O)O)N=C4N=C(N=5)c5ccccc54)c4ccccc43)C(N)=O)C2=O)C(C)C)cc1)C(C)C", "note": "(stereo partly drawn) [PSMA-1-MMAE-IR700]", "values": [
      {"measurement": "stability in PBS", "setting": "[1]", "value": "stable"},
      {"measurement": "fluorescence signal (uptake) in PC3pip cells", "setting": "[2]", "value": "observed as early as 15 min"},
      {"measurement": "fluorescence signal in PC3pip cells with 100× of PSMA-1 ligand", "setting": "[2]; co-incubation", "value": "completely blocked"},
      {"measurement": "cell killing in PC3flu cells", "setting": "[3]; 5 nM, with or without light", "value": "no effective cell killing"},
      {"measurement": "IC50 dark cytotoxicity, PC3flu cells", "setting": "[3]; 24 h in the dark, no light", "value": "no IC50 value was obtained"},
      {"measurement": "ratio of absorbance to control groups (cell viability)", "setting": "[4]; 690 nm light 1 J/cm2", "value": 0.423},
      {"measurement": "ratio of absorbance to control groups (cell viability)", "setting": "[4]; 690 nm light 3 J/cm2", "value": 0.208},
      {"measurement": "ratio of absorbance to control groups (cell viability)", "setting": "[4]; without light", "value": 0.892},
      {"measurement": "coefficient drug interaction (CDI)", "setting": "[4]; 1 J/cm2 light irradiation", "value": 0.609},
      {"measurement": "coefficient drug interaction (CDI)", "setting": "[4]; 3 J/cm2 light irradiation", "value": 0.550},
      {"measurement": "selectivity of killing PC3pip versus PC3flu cells", "setting": "[4]; 72 h in the dark", "value": 50, "unit": "fold"},
      {"measurement": "IC50", "setting": "[5]", "value": "8.42 ± 1.03", "unit": "nM"},
      {"measurement": "apoptosis / necrotic damage in tumors, with PDT", "setting": "[6]", "value": "most aggressive necrotic damage and apoptosis"},
      {"measurement": "fluorescence signal in primary tumor and lymph node histology", "setting": "[7]", "value": "only observed in cancer tissues"},
      {"measurement": "degradation in the presence of cathepsin", "setting": "[8]", "value": "degraded rapidly"}
    ]}
  ]
}
